Laboratory results reported in US20250339409A1, “USES OF PAN BET INHIBITORS” (VYNE THERAPEUTICS INC., priority 2021, published 2025).
Several values for one entry are separate records, joined by “and”; a condition that tells them apart may be missing. Equal entries are not always repeated.

Tested on: bleomycin induced pulmonary fibrosis
Test: Bleomycin induced pulmonary fibrosis in mice, nebulized treatment: body weight, weight of whole lung, survival
Assay type: in vivo
Conditions: for Mean Diff., Weight of Whole lung, Group 2 Bleo/Veh vs. BETi1 group / Mean Diff., % Change Body Weight, Group 2 Bleo/Veh vs. BETi1 group: One Way ANOVA; for Mean Diff., Weight of Whole lung, Group 2 Bleo/Veh vs. BETi1 group / Mean Diff., % Change Body Weight, Group 2 Bleo/Veh vs. BETi1 group / Predicted (LS) mean diff., % Change Body Weight, Group 2 Bleo/Veh vs. BETi1 group: Dunnett's; for % change in Body Weight Week 1 Compared to Baseline, mean / % change in Body Weight week 2 Compared to Baseline, mean / % change in Body Weight week 3 Compared to Baseline, Mean: group mean; for % change in Body Weight Week 1 Compared to Baseline / % change in Body Weight week 2 Compared to Baseline / % change in Body Weight week 3 Compared to Baseline: individual animals; for Predicted (LS) mean diff., % Change Body Weight, Group 2 Bleo/Veh vs. BETi1 group: Two Way ANOVA
Experimental: Bleomycin, a […], which acts inter alia by induction of DNA strand breaks.
The Bleomycin induced pulmonary fibrosis in a murine model is used to assess anti-fibrotic and/or anti-inflammatory properties of BETi1 formulations at three concentrations. Fifty C57BL/6 male mice aged 6 to 7 weeks and weighing between 25-30 grams are randomized into five treatment groups (10 mice each): (a) bleomycin induced mice treated with BETi1 at three concentrations (0.06 mg/mL, 0.6 mg/mL and 3 mg/mL); (b) bleomycin induced mice treated with vehicle (control for active) and (c) uninduced mice treated with vehicle (sham) (control for disease).
To generate the morphological and functional aspects of PF, 50 uL bleomycin sulfate in saline per mouse is intranasally dosed on Day 0 (other than for group 1 sham receiving saline). The bleomycin IU conversion to enzyme units (U) is approximately 2 U/mg. For delivery of 4 U/kg in 50 μL, a solution of 2 U/ml (for 25 g mouse) is prepared in 0.9% NaCl.
5 ml of BETi1 solutions at 3 doses, or vehicle and bleomycin concomitantly are delivered once daily for 21 days with a nebulizer based aerosol delivery system (eFlow® rapid Nebuliser System) by inhalation for a period which allows the solutions to be nebulized and up to 2 hours per day. A sham group receives vehicle only. Body weights are recorded on days 1, 7, 14, and 21. Mortality and clinical observations are recorded daily.
On day 21, mice are euthanized by cervical dislocation and the whole lung is dissected and weighed. The chest is wet with alcohol and large scissors are used to open the ribcage. The lungs are removed with fine scissors and forceps, rinsed with PBS and patted dry on gauze.
Investigation of the anti-fibrotic properties of BETi1 composition against TGF-β mediated fibrosis was undertaken in a bleomycin induced murine model mimicking IPF in accordance with the protocol set out in Experimental Method R.

[1] = Week 1, Group 3 Bleo/BETi1 0.06 mg/mL
[2] = Week 1, Group 4 Bleo/BETi1 0.6 mg/mL
[3] = Week 1, Group 5 Bleo/BETi1 3 mg/mL
[4] = Week 2, Group 3 Bleo/BETi1 0.06 mg/mL
[5] = Week 2, Group 4 Bleo/BETi1 0.6 mg/mL
[6] = Week 2, Group 5 Bleo/BETi1 3 mg/mL
[7] = Week 3, Group 3 Bleo/BETi1 0.06 mg/mL
[8] = Week 3, Group 4 Bleo/BETi1 0.6 mg/mL
[9] = Week 3, Group 5 Bleo/BETi1 3 mg/mL

Cn1cc(-c2cccc(O)c2Oc2ccccc2)c2cc[nH]c2c1=O [BETi1]
Probability of Survival (Group 4 Bleo/BETi1 0.6 mg/mL, Day Elapsed 0): 100% | Probability of Survival (Group 4 Bleo/BETi1 0.6 mg/mL, Day Elapsed 10): 87.5% | Probability of Survival (Group 4 Bleo/BETi1 0.6 mg/mL, Day Elapsed 19): 81.3% | Probability of Survival (Group 4 Bleo/BETi1 0.6 mg/mL, Day Elapsed 20): 81.3% | Mean Diff., Weight of Whole lung, Group 2 Bleo/Veh vs. BETi1 group (Group 4 Bleo/BETi1 0.6 mg/mL): 0.01849 | % change in Body Weight Week 1 Compared to Baseline, mean (Group 4 Bleo/BETi1 0.6 mg/mL): −21.76% | % change in Body Weight week 2 Compared to Baseline, mean (Group 4 Bleo/BETi1 0.6 mg/mL): −17.12% | % change in Body Weight week 3 Compared to Baseline, Mean (Group 4 Bleo/BETi1 0.6 mg/mL): −13.58% | % change in Body Weight Week 1 Compared to Baseline (Group 4 Bleo/BETi1 0.6 mg/mL): −10.00% and −30.77% and −22.17% and −31.64% and −20.93% and −27.01% and −24.89% and −31.19% and −5.26% and −14.75% and −23.22% and −25.78% and −4.72% and −10.36% and −31.41% and −8.41% | % change in Body Weight week 2 Compared to Baseline (Group 4 Bleo/BETi1 0.6 mg/mL): −8.00% and −33.52% and −16.04% and −27.44% and −32.70% and −21.78% and 0.96% and −18.89% and −16.11% and −23.11% and −0.47% and −0.90% and −39.27% and −2.34% | % change in Body Weight week 3 Compared to Baseline (Group 4 Bleo/BETi1 0.6 mg/mL): −7.50% and −34.62% and −7.55% and −27.91% and −34.12% and −12.89% and 2.39% and −6.45% and −14.69% and −19.56% and −3.30% and −9.91% and −0.47% | Mean 2 (group mean), Weight of Whole lung (Group 5 Bleo/BETi1 3 mg/mL): 0.2847 | Weight of Whole lung, Mean (Group 5 Bleo/BETi1 3 mg/mL): 0.28 grams | Weight of Whole lung, individual animals (Group 5 Bleo/BETi1 3 mg/mL): 0.31 grams (2×) and 0.33 grams (2×) and 0.30 grams (2×) and 0.23 grams and 0.27 grams and 0.29 grams and 0.34 grams and 0.28 grams and 0.21 grams and 0.22 grams | Probability of Survival (Group 5 Bleo/BETi1 3 mg/mL, Day Elapsed 0): 100% | Probability of Survival (Group 5 Bleo/BETi1 3 mg/mL, Day Elapsed 12): 88.24% | Probability of Survival (Group 5 Bleo/BETi1 3 mg/mL, Day Elapsed 19): 76.5% | Probability of Survival (Group 5 Bleo/BETi1 3 mg/mL, Day Elapsed 20): 76.5% | Mean Diff., Weight of Whole lung, Group 2 Bleo/Veh vs. BETi1 group (Group 5 Bleo/BETi1 3 mg/mL): 0.001901 | % change in Body Weight Week 1 Compared to Baseline, mean (Group 5 Bleo/BETi1 3 mg/mL): −19.36% | % change in Body Weight week 2 Compared to Baseline, mean (Group 5 Bleo/BETi1 3 mg/mL): −20.64% | % change in Body Weight week 3 Compared to Baseline, Mean (Group 5 Bleo/BETi1 3 mg/mL): −16.74% | % change in Body Weight Week 1 Compared to Baseline (Group 5 Bleo/BETi1 3 mg/mL): −26.87% and −23.22% and −36.71% and −15.25% and −13.81% and −12.78% and −17.30% and −34.80% and −28.32% and −27.55% and −24.87% and −34.38% and −26.99% and −11.63% and −10.16% and −15.64% and −21.86% | % change in Body Weight week 2 Compared to Baseline (Group 5 Bleo/BETi1 3 mg/mL): −11.45% and −36.97% and −40.10% and −20.18% and 1.43% and −7.05% and −22.16% and −38.24% and −34.07% and −20.81% and −42.92% and −8.37% and −1.07% and −7.11% and −20.47% | % change in Body Weight week 3 Compared to Baseline (Group 5 Bleo/BETi1 3 mg/mL): −5.73% and −37.44% and −21.52% and 1.90% and −7.05% and −24.32% and −46.08% and −37.17% and −17.26% and −3.26% and 2.67% and −4.27% and −18.14% | Mean 2 (group mean), % Change Body Weight [1]: −25.27% | Mean Diff., % Change Body Weight, Group 2 Bleo/Veh vs. BETi1 group [1]: 3.162% | Predicted (LS) mean diff., % Change Body Weight, Group 2 Bleo/Veh vs. BETi1 group [1]: −0.2812% | Mean 2 (group mean), % Change Body Weight [2]: −20.16% | Mean Diff., % Change Body Weight, Group 2 Bleo/Veh vs. BETi1 group [2]: −1.950% | Predicted (LS) mean diff., % Change Body Weight, Group 2 Bleo/Veh vs. BETi1 group [2]: 0.1375% | Mean 2 (group mean), % Change Body Weight [3]: −22.48% | Mean Diff., % Change Body Weight, Group 2 Bleo/Veh vs. BETi1 group [3]: 0.3723% | Predicted (LS) mean diff., % Change Body Weight, Group 2 Bleo/Veh vs. BETi1 group [3]: −0.2048% | Mean 2 (group mean), % Change Body Weight [4]: −19.98% | Mean Diff., % Change Body Weight, Group 2 Bleo/Veh vs. BETi1 group [4]: 1.135% | Predicted (LS) mean diff., % Change Body Weight, Group 2 Bleo/Veh vs. BETi1 group [4]: 0.3375% | Mean 2 (group mean), % Change Body Weight [5]: −17.12% | Mean Diff., % Change Body Weight, Group 2 Bleo/Veh vs. BETi1 group [5]: −1.732% | Predicted (LS) mean diff., % Change Body Weight, Group 2 Bleo/Veh vs. BETi1 group [5]: −0.3438% | Mean 2 (group mean), % Change Body Weight [6]: −20.64% | Mean Diff., % Change Body Weight, Group 2 Bleo/Veh vs. BETi1 group [6]: 1.788% | Predicted (LS) mean diff., % Change Body Weight, Group 2 Bleo/Veh vs. BETi1 group [6]: −0.05257% | Mean 2 (group mean), % Change Body Weight [7]: −8.830% | Mean Diff., % Change Body Weight, Group 2 Bleo/Veh vs. BETi1 group [7]: −4.313% | Predicted (LS) mean diff., % Change Body Weight, Group 2 Bleo/Veh vs. BETi1 group [7]: −2.409% | Mean 2 (group mean), % Change Body Weight [8]: −13.58% | Mean Diff., % Change Body Weight, Group 2 Bleo/Veh vs. BETi1 group [8]: 0.4395% | Predicted (LS) mean diff., % Change Body Weight, Group 2 Bleo/Veh vs. BETi1 group [8]: −0.1629% | Mean 2 (group mean), % Change Body Weight [9]: −16.74% | Mean Diff., % Change Body Weight, Group 2 Bleo/Veh vs. BETi1 group [9]: 3.600% | Predicted (LS) mean diff., % Change Body Weight, Group 2 Bleo/Veh vs. BETi1 group [9]: 0.6601%
